Experimental data published in patent publication US20220023450A1, “BONE MARROW-, RETICULOE[…]-, AND/OR LYMPH NODE-TARGETED RA[…] AND METHODS OF THEIR DIAGNOSTIC AND […] USE” (Memorial Sloan Kettering Cancer Center, priority 2018, published 2022).
Like-named read-outs stand apart in the source and are kept apart here.

Experiments:
[1] = C57/BL6, mouse, in vivo
Description: Mice were sacrificed at the indicated time and major organs were collected and weighed. ^64Cu counting was done as soon as the organs were collected and ^3H counting was measured 5 days after mice were sacrificed. The % ID/g was calculated by measuring weight and time corrected measurement of radioactivity. n=5 per group.
For biodistribution studies, approximately 5.5 MBg of [^64Cu]-DOTA-Bz-DSPE-labeled liposome and 370 kBq of ^3H-GT3 incorporated liposome was intravenously administered to C57/BL6 athymic nude mice (n=5 per group) via tail vein injection. Mice were sacrificed at 24 or 48 h after injection and major organs were collected and placed in pre-weighed culture tubes or Eppendorf tubes. To collect bone marrow, the femur was dipped into liquid nitrogen and one of the epiphyses was carefully removed. A 30 mL syringe with gauge 30½ needles was inserted into one end of the femur; air was blown and bone marrow was collected in the same tubes for radioactivity counting in a gamma counter (PerkinElmer, Inc., Waltham, Mass.). For ^3H activity measurement, major organs were collected in pre-weighed scintillation vials and 500 uL of Soluene®-350 were added. After overnight incubation at 37° C., 4.5 mL of Ecoscint A were added, mixed well, and counted in scintillation counter. Data were presented as percent injected dose per gram (% ID/g) of tissue.

[2] = tested on: peripheral blood cells (WBC, lymphocytes, platelets); assay: Blood cell recovery after sub-lethal total body irradiation (4 Gy); format: in vivo, C57/BL6 mice
Description: GT3-Lipo treated 24 h before TBI, GT3-Lipo treated 24 h after TBI, BMT only and no treatment.
FIGS. 3A and 3B a plot of complete blood count (CBC) data showing white blood cell (WBC) recovery after total body irradiation (TBI) (4 Gy) (FIG. 3A), and a plot of lymphocyte recovery after TBI (4 Gy) (FIG. 3B). C57BL6 mice were divided into 4 groups (5 mice per group). (Filled circle) GT3-Lipo treated 24 h before TBI. (Open square) BMT-Lipo treated 24 h before TBI. (Filled square) GT3-Lipo treated 24 h after TBI. (Open circle) No treatment. 10 mg/kg/mice GT3 were treated via i.v. and blood was collected by retro-orbital bleeding on day 0, 1, 4, 7, 14, 21, 43, 57 and 99.
White blood cells (WBC), lymphocytes, and neutrophils decreased to less than 10% of baseline counts with a nadir at day 1-4, post irradiation. […] Recovery of GT3 treated groups reached 100% at day 43. For the untreated group, WBC and lymphocyte counts recovered about 60% at day 43 and WBC and lymphocyte counts never recovered to normal level until day 99. Neutrophil counts decreased to nadir on day 4 for GT3 treated and untreated groups. […] recovered on day 7 and remained relatively the same counts until day 99. Platelet counts increased on day 1 and decreased to nadir on day 14. Platelet counts were recovered to normal level at day 43 and remained the same level until day 99 in all groups.
6- to 8-week-old C57/BL6 mice (Jackson Lab., Bar Harbor, Me.) were used for bone marrow protection from total body irradiation studies. 10 mg/kg GT3 liposomes (6% mol) were administered via i.v. 24 h pre- and post-total body irradiation (4 Gy, […], dose rate=82 cGy/min). No supportive care was given to mice after irradiation. Approximately 100 μL of blood was collected by retro-orbital blood collection for complete blood cell counts at various time points for 100 days.

MDA-MB-468 tumor = assay: Focal radiation therapy of tumor after GT3 administration; format: in vivo; conditions: 10 mg/kg GT3 prior to 11 Gy focal irradiation
Excerpt: Though GT3 accumulation in the tumor is moderate, there is possibility that GT3 in the tumor might protect tumor during radiation therapy. On the contrary, there are several reports that tocotrienols suppress the proliferation of a wide variety of tumor cells in culture, such as MDA-MB-435, MCF-7, PC-3, LnCaP and DLD-1. Animal studies also have been shown that tocotrienol suppresses the growth of tumors such as 7,12-dimethylbenz(a)anthracene induced mammary tumor, HepG2, and PC-3. To address the question that GT3 protects tumors from irradiation, focal radiation therapy was performed to evaluate the effect of GT3 in the tumor when 10 mg/kg GT3 was administered prior to 11 Gy focal irradiation.

For `CC(C)=CCC/C(C)=C/CC/C(C)=C/CC[C@]1(C)CCc2cc(O)c(C)c(C)c2O1` [[^3H]-GT3], which “loss of active drug during the tissue targeting process” value [1] is on record?
Its value is “approximately 50%”.

What about the “Biodistribution, Marrow” value ([1]; 24 h) of the same molecule?
Its value is 4.28±1.57 % ID/g.

What about the “Biodistribution, Spleen” value ([1]; 24 h) of the same molecule?
Its value is 7.95±1.63 % ID/g.

What about the “Biodistribution, Marrow” value ([1]; 48 h) of the same molecule?
Its value is 7.44±2.81 % ID/g.

What about the “Biodistribution, Spleen” value ([1]; 48 h) of the same molecule?
Its value is 8.26±1.86 % ID/g.

Which results are given for `CC(C)=CCC/C(C)=C/CC/C(C)=C/CC[C@]1(C)CCc2cc(O)c(C)c(C)c2O1` [GT3, (2R)-2,7,8-trimethyl-2-[(3E,7E)-4,8,12-trimethyltrideca-3,7,11-trienyl]-3,4-dihydrochromen-6-ol]?
platelet counts compared with untreated group ([2]; 4 Gy TBI): no significant differences; recovery of WBC and lymphocytes compared with untreated group ([2]; 4 Gy TBI, 10 mg/kg GT3 liposomes i.v. 24 h before or after TBI): faster and more complete; recovery of WBC and lymphocyte counts ([2]; day 43 after 4 Gy TBI, 10 mg/kg GT3 liposomes i.v.): 100%; effect on tumor response to focal radiation (MDA-MB-468 tumor): does not protect nor sensitize
